We go through six molecules from patent publication US5254577A, “Aminomethyloxooxazolidinyl arylbenzene derivatives useful as antibacterial agents” (The Du Pont Merck Pharmaceutical Company, priority 1992, dated 1993).

In brackets after ≈: the same amount, converted by molar mass. Read-outs that look alike come from different tables or passages of the source.

In experiment [1] the test system is Escherichia coli. Kind of experiment: In vitro broth microdilution, 24-hour minimal inhibitory concentration (MIC). Format: cell-based. Particulars: Mueller-Hinton broth, read-out: Minimum Inhibitory Concentration. From the text:
(§1) A standard microdilution method (National Committee for Clinical Standards. Tentative standard M7-T. Standard methods for dilution antimicrobial susceptibility tests for bacteria that grow aerobically. National Committee for Clinical Laboratory Standards, Villanova, Pa. 1982) with Mueller-Hinton broth is used to determine the 24-hour minimal inhibitory concentrations (MIC's) for test strains of Staphylococcus aureus and Escherichia coli.
Background: In broth dilution the organism is exposed to a series of concentrations in liquid medium.

Experiment [2] concerns Staphylococcus aureus. Described as above. Format: cell-based. To be noted: Mueller-Hinton broth, read-out: Minimum Inhibitory Concentration.
Description: as §1

Experiment [3] concerns Staphylococcus aureus. Kind of experiment: In vivo activity against Staphylococcus aureus in an acute lethal mouse model. To be noted: Staphylococcus aureus, 168 h, mice infected intraperitoneally, dosed 1 h and 4 h post-infection, survivors on seventh day, read-out: ED50. Here is the method:
The in vivo potency of these compounds is exemplified by the data summarized in Table X. Determinations of in vivo efficacy are performed by inoculating mice intraperitoneally with cultures of the infecting organism diluted to produce 100% mortality in control animals within twenty-four hours. The culture of S. aureus used to infect the animals was diluted to the required bacterial density using 5% aqueous hog gastric mucin. The compounds are dissolved or suspended in 0.25% aqueous Methocel® (Methocel®: Hydroxypropyl Methylcullulose, E15 Premium, Dow Chemical Company) for oral administration or sterile distilled water containing 5% dimethylsulfoxide (Fisher Scientific Company, Fairlawn, N.J.) for subcutaneous administration. The mice are dosed at one hour and at four hours post-infection. Mortality is recorded daily until test determination seven days post infection. The number of survivors in each treatment group on the seventh day after infection is used in the calculation of the ED50, the dose of compound that protects 50% of the mice (Litchfield,J. T. and Wildoxon. A simulated method for evaluating dose-effect experiments. J. Pharmacol Exp. Ther., 98:99-113, 1949).

Where [4] appears, read: sc, Subcutaneous Administration.

One may read the ED50 as the dose at which the effect has come halfway, by size or by number of responders. As to `CC(=O)NC[C@H]1CN(c2ccc(-c3ccc(CN(CCO)CCO)cc3)cc2)C(=O)O1` [Example 50], the MIC in experiment [1] is more than 128 µg/mL; in experiment [2] it was 0.5 µg/mL (≈ 1.17 µM). Moreover, in experiment [3] (setting [4]), the 50% effective dose (ED50) was 6.5 mg/kg.

In the case of `CC(=O)NC[C@H]1CN(c2ccc(-c3ccc(C=O)cc3)cc2)C(=O)O1` [Example 21, (l)-N-[3-(4-(4'-Formylphenyl)phenyl)-2-oxooxazolidin-5-ylmethyl]acetamide], the results for the MIC in experiment [1] and in experiment [2] were more than 128 µg/mL and less than 0.13 µg/mL, respectively. Moreover, the results for the ED50 in experiment [3] (Oral Administration) and in experiment [3] (setting [4]) were 44.7 mg/kg and more than 90 mg/kg, respectively.

As for `CC(=O)NC[C@H]1CN(c2ccc(-c3ccc(C(C)=NO)cc3)cc2)C(=O)O1` [Example 22, (l)-N-[3-(4-(4'-(1-Hydroxyiminoethyl)phenyl)phenyl)-2-oxooxazolidin-5-ylmethyl]acetamide], the MIC in experiment [1] was more than 128 µg/mL; in experiment [2], 0.25 µg/mL (≈ 0.68 µM). For the same molecule, the ED50 in experiment [3] (Oral Administration) and in experiment [3] (setting [4]) was more than 90 mg/kg each time.

As for `CSc1ccc(-c2ccc(N3C[C@H](CNC(C)=O)OC3=O)cc2)cc1` [Example 67, (l)-N-[3-(4-(4'-methylthiophenyl)phenyl)-2-oxooxazolidin-5-ylmethyl]acetamide], the MIC was more than 128 µg/mL in experiment [1] and 0.25 µg/mL (≈ 0.701 µM) in experiment [2]. In addition, the ED50 in experiment [3] (Oral Administration) was found to be 4.5 mg/kg; in experiment [3] (setting [4]), 30 mg/kg.

Regarding `CC(=O)NC[C@H]1CN(c2ccc(-c3cccnc3)cc2)C(=O)O1` [Example 88], the MIC in experiment [1] is more than 128 µg/mL; in experiment [2], less than 0.13 µg/mL. The ED50 in experiment [3] (Oral Administration) came to 1.6 mg/kg; in experiment [3] (setting [4]) it was 0.5 mg/kg.

As to `CCCCN(CCCC)Cc1ccc(-c2ccc(N3C[C@H](CNC(C)=O)OC3=O)cc2)cc1` [Example 46], the figures for the MIC in experiment [1] and in experiment [2] were more than 128 µg/mL and 4 µg/mL (≈ 8.86 µM), respectively. The ED50 in experiment [3] (setting [4]) is 30 mg/kg.
